Test results as given in US9079915B2, “Thienyl- and furanyl-isoquinolinones and methods for using them” (priority 2008, dated 2015).

What was measured:
Assay type in all cases: in vivo
Wistar rats, pMCAO = experiment: Less severe permanent MCAO (pMCAO, distal MCA occlusion) model; details: pMCAO rat
Method: Adult male Wistar rats (Charles River, Wilmington, Mass.) 290-310 g were used in all studies. Animal procedures were approved by the Institutional Animal Care and Use Committee and conducted in accordance with the guidelines of the National Institutes of Health. Craniotomy was performed under isoflurane anesthesia. This was followed by electrocauterization of the distal portion of the MCA and a 90 minute ligation of both carotid arteries to limit collateral circulation during the initial stage of stroke, as described by Chen, et al. (Chen et al., 1986). Compound or vehicle, were administered as infusion starting at 4 hours post-induction of stroke and lasting 24 hours. Animals were maintained for long-term functional recovery assessment. Sensorimotor and reflex deficits were evaluated at 3-day intervals for 90 days according to (Bederson et al., 1986; De Ryck et al., 1989). Each trial included: postural test, two visual and two tactile forelimb placement tests and a hind limb placement test. Performance at each test was scored from 0 (no deficit) to 2 (severe deficit) for a maximum combined score of 12. Neurological scoring was performed in a blinded fashion. Values are expressed as means±SEM for the indicated number of animals or number of in vitro experiments. The statistical significance of differences between means was calculated by one-way ANOVA with post-hoc Fisher test or Dunnett's comparison to control or with Student's t-test analysis, as appropriate. Linear mix model was used to assess differences between treatment groups during 3-week neurological function recovery testing post-pMCAO. Statistical significance was assumed at p<0.05. A further efficacy study was conducted and employed a less severe permanent MCAO (pMCAO) model. This model, which utilized an occlusion of the distal portion of the middle cerebral artery, produced a much smaller injury contained within the sensorimotor cortex of the animal. The injury sustained in this model was less extensive but still involves the motor cortex and the rats can be assessed over the long-term (3 weeks to 3 months post-ischemia) for neurological function. In a first study with this model, rats were administered an IV bolus dose of 1, 3 or 10 mg/kg initiated at 4 hours post-ischemia and followed by 2 subsequent and equivalent doses at 7 and 10 hours. In a second study, rats were given a single IV bolus followed by a 24 hr IV infusion. Neurological function was tested every 2-3 days for 3 weeks post-MCAO.

[1] = tested on: Wistar rats, 90 min tMCAO; experiment: Transient middle cerebral artery occlusion (tMCAO) model; details: tMCAO rat
Method: (§1) Adult male Wistar rats (Charles River, Wilmington, Mass.) 290-310 g were used in all studies. Animal procedures were approved by the Institutional Animal Care and Use Committee and conducted in accordance with the guidelines of the National Institutes of Health.
(§2) Rats were anesthetized with 3% isoflurane in a mixture of 70% nitrous oxide and 30% oxygen through a nose cone. Core body temperature was maintained at 37° C. throughout the surgery using a heating lamp. tMCAO was induced for 90 min using the intraluminal suture method (Longa et al., Reversible middle cerebral artery occlusion without craniectomy in rats. Stroke 20:84-91, 1989). Briefly, an 18 mm length of 4-0 monofilament nylon suture coated with poly-L-lysine (Belayev et al., 1996) with a flame-rounded tip was inserted into the external carotid artery and advanced into the internal carotid to occlude the origin of the MCA Ninety minutes later rats were re-anesthetized, the suture withdrawn and the incision closed. Drug (test compound) or vehicle, were administered into the tail vein as a 3 IV bolus doses 3 hours apart in a volume of 2 ml/kg starting at 4 hours post-induction of stroke at various time intervals after the induction of stroke. Animals were tested for motor deficits using a scoring system described by (Bederson et al., 1986). A Bederson score of 5 (maximum) at 90 minutes post-induction of tMCAO was a criterion for inclusion in the trial. Motor deficits and body weight were monitored at 24 and 48 hours post-tMCAO. Neurological deficits were assessed by blinded operators. Rats were sacrificed at 48 hours post-tMCAO. Sham-operated controls were subjected to identical surgical procedures but without advancement of the monofilament into the MCA branching point. The same model was also used, but in addition to occlusion of middle cerebral arteries, both carotid arteries were occluded (CCAO) for the same time 90 minutes. This was Severe Transient MCAO.
(§3) After sacrifice, brains were extracted and 2 mm coronal sections were cut starting at 4 mm from the frontal pole using a rat brain matrix (Stoeling, Wood Dale, Ill.). Sections were stained by immersion in a 2% solution of 2,3,5-triphenyl tetrazolium chloride at 37° C. for 10 minutes and then in 10% neutral formalin for preservation. Digitized images of sections were collected using the MCID image analysis system (Imaging Research, Inc. Ontario, Canada), and the area of infarct determined for each slice. Total infarct volume was calculated by multiplying a sum of areas by the distance between them in mm.
Values are expressed as means±SEM for the indicated number of animals or number of in vitro experiments. The statistical significance of differences between means was calculated by one-way ANOVA with post-hoc Fisher test or Dunnett's comparison to control or with Student's t-test analysis, as appropriate. Linear mix model was used to assess differences between treatment groups during 3-week neurological function recovery testing post-pMCAO. Statistical significance was assumed at p<0.05.
The first study was conducted using a transient middle cerebral artery occlusion (tMCAO) model. Rats were subjected to 90 minutes tMCAO and compound (2-dimethylaminomethyl-9-hydroxythieno[2,3-c]isoquinolin-5(4H)-one) was administered using 3 bolus injections at 4, 7 and 10 hours post-ischemia and an intraperitoneal (IP) route of administration. The three doses evaluated were 0.1, 1 and 10 mg/kg. Dosing was initiated at 4 hours post-MCAO because it is a clinically relevant therapeutic time window to treatment. Infarct volumes and neurological testing were carried out at 48 hours post-ischemia. This model produces an extensive unilateral lesion that involves the motor cortex and striatum. It is used to assess acute neuroprotection and neurological function in a reperfusion model of stroke. […]

[2] = tested on: Wistar rats, severe permanent MCAO; experiment: Severe permanent MCAO model (intraluminal suture not removed); details: severe permanent MCAO rat, 3×1 mg/kg IP from 30 minutes post-ischemia, 24 hours
[3] = tested on: Wistar rats, severe tMCAO; experiment: Severe tMCAO model (MCA and both carotid arteries temporarily occluded); details: severe tMCAO rat, 48 hours
Method: as §1
as §2, with “Sham-operated controls were subjected to identical surgical procedures but without advancement of the monofilament into the MCA branching point. The same model was also used, but in addition to occlusion of middle cerebral arteries, both carotid arteries were occluded (CCAO) for the same time 90 minutes. This was Severe Transient MCAO.” left out
as §3, with “Sections were stained by immersion in a 2% solution of 2,3,5-triphenyl tetrazolium chloride at 37° C. for 10 minutes and then in 10% neutral formalin for preservation.” left out
Values are expressed as means±SEM for the indicated number of animals or number of in vitro experiments. The statistical significance of differences between means was calculated by one-way ANOVA with post-hoc Fisher test or Dunnett's comparison to control or with Student's t-test analysis, as appropriate. […]
In a third assay, a severe tMCAO model was used (where both MCAO and carotid arteries were temporarily occluded) to obtain an injury. […] Doses of 1 or 10 mg/kg of 2-dimethylaminomethyl-9-hydroxythieno[2,3-c]isoquinolin-5(4H)-one were given at 4, 7 and 10 hours and animals were evaluated for infarct size, weight loss and neurological score at 48 hours post-MCAO.

[4] = 11.7 mg/kg IV bolus then 0.9 mg/hr infusion for 24 hours

Structure (SMILES): CN(C)Cc1cc2c([nH]c(=O)c3cccc(O)c32)s1 [2-dimethylaminomethyl-9-hydroxythieno[2,3-c]isoquinolin-5(4H)-one]
- time for which neurological recovery was maintained following ischemia (Wistar rats, pMCAO; 3.5 mg/kg IV bolus plus 2.5 mg/hr IV infusion for 24 hours): at least 3 months
- neurological deficits (Wistar rats, pMCAO; 3.5 mg/kg IV bolus plus 2.5 mg/hr IV infusion for 24 hours, 39 days post-ischemia): significantly reduced neurological deficits
- neurological function, 10 mg/kg dose (Wistar rats, pMCAO; multiple IV bolus 10 mg/kg, 21 days post-ischemia): approached efficacy
- neurological function (Wistar rats, pMCAO; multiple IV bolus 1, 3 or 10 mg/kg at 4, 7 and 10 hours, 21 days post-ischemia): no significant improvement in neurological function
- neurological deficits ([1]; 1 mg/kg IP ×3, 48 hr post-MCAO): significantly reduced neurological deficits
- effect on neurological deficits, weight loss and infarct volume ([1]; 3.9 mg/kg IV bolus then 0.3 mg/hr infusion for 24 hours (lower dose)): No effect was seen
- ischemic-induced weight loss [1, 4]: significant reduction in ischemic-induced weight loss
- reduction in infarct volume (small but insignificant) [1, 4]: 10%
- neurological deficits ([1]; 11.7 mg/kg IV bolus then 0.9 mg/hr infusion for 24 hours from 4 hours post-tMCAO, 48 hours): significant reduction in neurological deficits
- reduction of infarct volume vs vehicle ([1]; 3×0.1 mg/kg IP at 4, 7 and 10 hours post-ischemia, 48 hours): 20%
- reduction of infarct volume vs vehicle ([1]; 3×1 mg/kg IP at 4, 7 and 10 hours post-ischemia, 48 hours): 55%
- reduction of infarct volume vs vehicle ([1]; 3×10 mg/kg IP at 4, 7 and 10 hours post-ischemia, 48 hours): 66%
- infarct volume smaller than vehicle [2]: 42%
- infarct volume smaller than vehicle ([3]; 3 times 1 mg/kg IV bolus at 4, 7 and 10 hours): 22%
- infarct volume smaller than vehicle ([3]; 3 times 10 mg/kg IV bolus at 4, 7 and 10 hours): 19%
- ischemia-induced weight loss ([3]; 3 times 1 or 10 mg/kg IV bolus): reduction of ischemia-induced weight loss
- neurological deficits ([3]; 3 times 1 or 10 mg/kg IV bolus): reduction of neurological deficits
